Reference: patent publication US20260347364A1, “PYRAZOLO[4,3-F]QUINAZOLINE DERIVATIVES AS MODULATORS OF G12D MUTANT KRAS USEFUL FOR THE TREATMENT OF CANCER” (JAZZ PHARMACEUTICALS IRELAND LTD., priority 2023, published 2026)

Experiments:
KRAS WT = target: T1, KRAS WT (Homo sapiens, UniProt P01116); assay: HTRF nucleotide exchange assay, KRAS WT; assay type: biochemical; details: class symbols; for IC50: HTRF nucleotide exchange assay (NEA)
T1 construct: aa1-188 KRAS WT
Experimental: (§1) HTRF Nucleotide Exchange Assay Method
(§2) The capacity of compounds to bind KRAS G12D, other KRAS mutants and wildtype RAS isoforms was quantified using a HTRF nucleotide exchange assay. Recombinant human RAS protein (2 nM; aa1-188 KRAS WT, HRAS WT, NRAS WT, or KRAS containing the G12D, G13D or Q61H amino acid substitutions, or 4 nM KRAS; aa1-188 containing the G12V, G12C, G12A or G12S amino acid substitution, an N-terminal 6× His-tag and leader sequence), and 2 nM Europium-labeled anti-6× His antibody were mixed in assay buffer (10 mM HEPES pH 7.3, 150 mM NaCl, 5 mM MgCl2, 0.05% BSA, 0.0025% NP-40 and 100 mM KF) with various concentrations of compound in a 384-well plate and a volume of 5 μL. After a 60-minute incubation at room temperature, 5 μl of 200 nM EDA-GTP-DY647P1 (diluted in assay buffer) was added to the plate. Following 30-minute incubation at room temperature, time-resolved fluorescence was measured on a PerkinElmer Envision plate reader. DMSO (0.3%) and unlabeled GDP (1 μM) or equivalent tool compound were used to generate the Max and Min assay signals, respectively. Data was analysed using a four-parameter logistic model to calculate IC50 values, with at least two independent replicates were performed for each compound. The results are presented as IC50s in Table 29 where “A” corresponds to an IC50 ≤10 nM, “B” to an IC50 >10 nM up to 100 nM, “C” is >100 nM up to 10 μM, “D” represents <49% inhibition at 10 μM and ND=not determined: […]

KRAS G12D = target: T2, KRAS G12D (Homo sapiens, UniProt P01116, G12D); assay: HTRF nucleotide exchange assay, KRAS G12D; assay type: biochemical; details: class symbols; for IC50: HTRF nucleotide exchange assay (NEA)
T2 construct: aa1-188 KRAS WT, HRAS WT, NRAS WT, or KRAS containing the G12D
Experimental: as §1, §2

| SMILES | IC50 (KRAS WT) [nM] | IC50 (KRAS G12D) [nM] | KRAS^WT NEA (KRAS WT) | KRAS^G12D NEA (KRAS G12D) |
| --- | --- | --- | --- | --- |
| CCc1c(F)ccc2cc(O)cc(-c3cc4nc(OCC5CCCN(C)C5)nc(N5CCCOCC5)c4c4cn(C)nc34)c12 (stereo not drawn) [Example 32, 5-ethyl-6-fluoro-4-[2-methyl-7-[(1-methyl-3-piperidyl)methoxy]-9-(1,4-oxazepan-4-yl)pyrazolo[4,3-f]quinazolin-4-yl]naphthalen-2-ol] | 100 to 10000 | 100 to 10000 |  |  |
| C#Cc1c(F)ccc2cc(O)cc(-c3cc4nc(OC[C@@]56CCCN5C[C@H](F)C6)nc(N5CCCC(C)(O)C5)c4c4cn(C)nc34)c12 (stereo partly drawn) [Example 33, 1-[4-(8-ethynyl-7-fluoro-3-hydroxy-1-naphthyl)-2-methyl-7-[[(2R,8S)-2-fluoro-1,2,3,5,6,7-hexahydropyrrolizin-8-yl]methoxy]pyrazolo[4,3-f]quinazolin-9-yl]-3-methyl-piperidin-3-ol] | 10 to 100 | 10 to 100 |  |  |
| C#Cc1c(F)ccc2cc(O)cc(-c3cc4nc(OC[C@@]56CCCN5C[C@H](F)C6)nc(N5CC6CNCC6C5)c4c4cn(C)nc34)c12 (stereo partly drawn) [Example 34, 4-[9-(2,3,3a,4,6,6a-hexahydro-1H-pyrrolo[3,4-c]pyrrol-5-yl)-2-methyl-7-[[(2R,8S)-2-fluoro-1,2,3,5,6,7-hexahydropyrrolizin-8-yl]methoxy]pyrazolo[4,3-f]quinazolin-4-yl]-5-ethynyl-6-fluoro-naphthalen-2-ol] | 100 to 10000 | ≤ 10 |  |  |
| C#Cc1c(F)ccc2cc(O)cc(-c3cc4nc(OC[C@@]56CCCN5C[C@H](F)C6)nc(N5CC6C(=O)NC(=O)C6C5)c4c4cn(C)nc34)c12 (stereo partly drawn) [Example 37] |  | 100 to 10000 | D (<49% inhibition at 10 μM) |  |
| C#Cc1c(F)ccc2cc(O)cc(-c3cc4nc(OC[C@@]56CCCN5C[C@H](F)C6)nc(N5CCCCC(C)(O)C5)c4c4cn(C)nc34)c12 (stereo partly drawn) [Example 43] | ≤ 10 | ≤ 10 |  |  |
| CCc1c(F)ccc2cc(O)cc(-c3c(F)c4nc(OC[C@@]56CCCN5C[C@H](F)C6)cc(N5CCCOCC5)c4c4cn(C)nc34)c12 [Example 45, 5-ethyl-6-fluoro-4-[5-fluoro-2-methyl-9-(1,4-oxazepan-4-yl)-7-[[(2R,8S)-2-fluoro-1,2,3,5,6,7-hexahydropyrrolizin-8-yl]methoxy]pyrazolo[4,3-f]quinolin-4-yl]naphthalen-2-ol] | 100 to 10000 | 100 to 10000 |  |  |
| CCc1c(F)ccc2cc(O)cc(-c3cc4nc(OC[C@@H]5C[C@H](C)CN5)nc(N5CCCn6nc(C(=O)N(C)C)cc6C5)c4c4cn(C)nc34)c12 [Example 49, 5-[4-(8-ethyl-7-fluoro-3-hydroxy-1-naphthyl)-2-methyl-7-[[(2S,4S)-4-methylpyrrolidin-2-yl]methoxy]pyrazolo[4,3-f]quinazolin-9-yl]-N,N-dimethyl-4,6,7,8-tetrahydropyrazolo[1,5-a][1,4]diazepine-2-carboxamide] | 100 to 10000 |  |  | D (<49% inhibition at 10 μM) |
| CCc1c(F)ccc2cc(O)cc(-c3cc4nc(OC[C@@H]5CCN5)nc(N5CCCn6nc(C(=O)N(C)C)cc6C5)c4c4cn(C)nc34)c12 [Example 50, 5-[4-(8-ethyl-7-fluoro-3-hydroxy-1-naphthyl)-2-methyl-7-[[(2S)-azetidin-2-yl]methoxy]pyrazolo[4,3-f]quinazolin-9-yl]-N,N-dimethyl-4,6,7,8-tetrahydropyrazolo[1,5-a][1,4]diazepine-2-carboxamide] | 10 to 100 | ≤ 10 |  |  |
| CCc1c(F)ccc2cc(O)cc(-c3cc4nc(OC[C@@H]5C[C@@H](OC)CN5)nc(N5CCCn6nc(C(=O)N(C)C)cc6C5)c4c4cn(C)nc34)c12 [Example 51] | 10 to 100 | ≤ 10 |  |  |
| CCc1c(F)ccc2cc(O)cc(-c3cc4nc(OCC5(CN6CCCC6)CC5)nc(N5CCCn6nc(C(=O)N(C)C)cc6C5)c4c4cn(C)nc34)c12 [Example 52] | 10 to 100 | ≤ 10 |  |  |
| CCc1c(F)ccc2cc(O)cc(-c3cc4nc(OC[C@]5(C)CCCN5)nc(N5CCCn6nc(C(=O)N(C)C)cc6C5)c4c4cn(C)nc34)c12 [Example 53, 5-[4-(8-ethyl-7-fluoro-3-hydroxy-1-naphthyl)-2-methyl-7-[[(2S)-2-methylpyrrolidin-2-yl]methoxy]pyrazolo[4,3-f]quinazolin-9-yl]-N,N-dimethyl-4,6,7,8-tetrahydropyrazolo[1,5-a][1,4]diazepine-2-carboxamide] |  | 100 to 10000 | D (<49% inhibition at 10 μM) |  |

Results, then the compound that gave them:

| IC50 (KRAS WT) [nM] | IC50 (KRAS G12D) [nM] | KRAS^WT NEA (KRAS WT) | KRAS^G12D NEA (KRAS G12D) | SMILES |
| --- | --- | --- | --- | --- |
| 100 to 10000 | 100 to 10000 |  |  | Cn1cc2c(n1)c(-c1cc(O)ccc1OC(F)(F)F)cc1nc(OC[C@@]34CCCN3C[C@H](F)C4)nc(N3CCCOCC3)c12 [Example 38, 3-[2-methyl-9-(1,4-oxazepan-4-yl)-7-[[(2R,8S)-2-fluoro-1,2,3,5,6,7-hexahydropyrrolizin-8-yl]methoxy]pyrazolo[4,3-f]quinazolin-4-yl]-4-(trifluoromethoxy)phenol] |
| 10 to 100 | 10 to 100 |  |  | Cn1cc2c(n1)c(-c1cc(O)cc3ccc(F)c(F)c13)cc1nc(OC[C@@]34CCCN3C[C@H](F)C4)nc(N3CCCOCC3)c12 [Example 39] |
| ≤ 10 | ≤ 10 |  |  | CCc1c(F)ccc2cc(O)cc(-c3cc4nc(OC[C@@]56CCCN5C[C@H](F)C6)nc(N5CCOC[C@@](C)(O)C5)c4c4cn(C)nc34)c12 [Example 40, (6S)-4-[4-(8-ethyl-7-fluoro-3-hydroxy-1-naphthyl)-2-methyl-7-[[(2R,8S)-2-fluoro-1,2,3,5,6,7-hexahydropyrrolizin-8-yl]methoxy]pyrazolo[4,3-f]quinazolin-9-yl]-6-methyl-1,4-oxazepan-6-ol] |
| 10 to 100 | 10 to 100 |  |  | CCc1c(F)ccc2cc(O)cc(-c3cc4nc(OC[C@@]56CCCN5C[C@H](F)C6)nc(N5CCOC[C@](C)(O)C5)c4c4cn(C)nc34)c12 [Example 41, (6R)-4-[4-(8-ethyl-7-fluoro-3-hydroxy-1-naphthyl)-2-methyl-7-[[(2R,8S)-2-fluoro-1,2,3,5,6,7-hexahydropyrrolizin-8-yl]methoxy]pyrazolo[4,3-f]quinazolin-9-yl]-6-methyl-1,4-oxazepan-6-ol] |
| 10 to 100 | 10 to 100 |  |  | CCc1c(F)ccc2cc(O)cc(-c3cc4nc(OC[C@@]56CCCN5C[C@H](F)C6)nc(N5CCCC(O)CC5)c4c4cn(C)nc34)c12 (stereo partly drawn) [Example 42, 1-[4-(8-ethyl-7-fluoro-3-hydroxy-1-naphthyl)-2-methyl-7-[[(2R,8S)-2-fluoro-1,2,3,5,6,7-hexahydropyrrolizin-8-yl]methoxy]pyrazolo[4,3-f]quinazolin-9-yl]azepan-4-ol] |
| 10 to 100 | 10 to 100 |  |  | CCc1c(F)ccc2cc(O)cc(-c3cc4nc(OC[C@@]56CCCN5C[C@H](F)C6)nc(N5CCCOCC5)c4c4cn(C5CC5)nc34)c12 [Example 44, 4-[2-cyclopropyl-9-(1,4-oxazepan-4-yl)-7-[[(2R,8S)-2-fluoro-1,2,3,5,6,7-hexahydropyrrolizin-8-yl]methoxy]pyrazolo[4,3-f]quinazolin-4-yl]-5-ethyl-6-fluoro-naphthalen-2-ol] |
| 100 to 10000 |  |  | D (<49% inhibition at 10 μM) | CCc1c(F)ccc2cc(O)cc(-c3cc4nc(OC[C@@]56CCCN5C[C@H](F)C6)nc(N5CCCOCC5)c4c4cnn(C)c34)c12 [Example 46, 5-ethyl-6-fluoro-4-[3-methyl-9-(1,4-oxazepan-4-yl)-7-[[(2R,8S)-2-fluoro-1,2,3,5,6,7-hexahydropyrrolizin-8-yl]methoxy]pyrazolo[4,3-f]quinazolin-4-yl]naphthalen-2-ol] |
| 100 to 10000 | 100 to 10000 |  |  | CCc1c(F)ccc2cc(O)cc(-c3cc4nc(OCC56CCCN5CCC6)nc(N5CCCOCC5)c4c4[nH]ncc34)c12 [Example 47, 5-ethyl-6-fluoro-4-[7-(1,2,3,5,6,7-hexahydropyrrolizin-8-ylmethoxy)-9-(1,4-oxazepan-4-yl)-1H-pyrazolo[3,4-f]quinazolin-4-yl]naphthalen-2-ol] |
|  |  | D (<49% inhibition at 10 μM) | D (<49% inhibition at 10 μM) | Cn1ncc2c3c(N4CCCOCC4)nc(OC[C@@]45CCCN4C[C@H](F)C5)nc3cc(-c3cc(O)cc4ccccc34)c21 [Example 48, 4-[3-methyl-9-(1,4-oxazepan-4-yl)-7-[[(2R,8S)-2-fluoro-1,2,3,5,6,7-hexahydropyrrolizin-8-yl]methoxy]pyrazolo[4,3-f]quinazolin-4-yl]naphthalen-2-ol] |
|  |  | D (<49% inhibition at 10 μM) | D (<49% inhibition at 10 μM) | Cn1cc2c(n1)c(-c1cc(O)cc3c1C(=O)CCC3)cc1nc(OC[C@@]34CCCN3C[C@H](F)C4)nc(N3CCCOCC3)c12 [Example 58, 6-hydroxy-8-[2-methyl-9-(1,4-oxazepan-4-yl)-7-[[(2R,8S)-2-fluoro-1,2,3,5,6,7-hexahydropyrrolizin-8-yl]methoxy]pyrazolo[4,3-f]quinazolin-4-yl]tetralin-1-one] |
